Data: publication PMC10608021, “Angiotensin-I-Converting Enzyme (ACE)-Inhibitory Peptides from the Collagens of Monkfish (Lophius litulon) Swim Bladders: Isolation, Characterization, Molecular Docking Analysis and Activity Evaluation” (Marine Drugs, 2023)
Read-outs that look alike come from different tables or passages of the source.

Legend:
[1] = system: HUVECs; settings: cited from earlier work; for ET-1 secretion and NO generation in HUVECs: peptide from tuna roes, ref [31]; for NO and ET-1 production in HUVECs: ref [73]
Description: (§1) In addition, ET-1 is a known vasoconstriction factor, similar to Ang II, that can result in endothelial dysfunction associated with high blood pressure and atherosclerosis.

[2] = system: HUVECs, nitric oxide (NO) level; assay: NO production in HUVECs (assay kit); assay type: cell-based, Human; settings: for NO level in HUVECs / NO production level in HUVECs: control 35.01 ± 1.38 µM; for NO level in HUVECs / NO content in NE-treated HUVECs / NO production level in HUVECs: mean ± SD, n = 3; for NO content in NE-treated HUVECs: peptide 300 μM + NE, NE alone 21.34 ± 1.24 µM; for NO production level in HUVECs: peptide 300 μM, 24 h, without NE; for NO content in HUVECs, result in words: treatment with peptide
Experimental: (§2) HUVECs were cultured in DMEM at 37 °C in a humidified 5% CO2 atmosphere, and the DMEM contained penicillin (100 U/mL), FBS (10%, v/v) and streptomycin ([…]). After 24 h, the cells were used for follow-up experiments.
(§3) After treatment with ACEi peptides (MHP6, MHP7 and MHP9, respectively) for 24 h, the NO and ET-1 content in the HUVECs was separately determined according to their assay kits as per manufacturers’ protocol.

[3] = system: HUVECs, endothelin-1 (ET-1) level; assay: ET-1 production in HUVECs (assay kit); assay type: cell-based, Human; settings: for ET-1 content in NE-treated HUVECs: peptide 300 μM + NE (0.5 μM), NE alone 69.58 ± 3.11 pg/mL; for ET-1 content in HUVECs, result in words: peptide at 100–300 μM
Experimental: as §2, §3

[4] = system: HUVECs; assay: Viability of HUVECs (MTT); assay type: cell-based, Human; settings: for Cell viability of HUVECs: 400 µM; for Viability of HUVECs, result in words: 400 μM, 24 h, versus control and other concentration groups, p < 0.05
Experimental: as §2
The MTT method was employed to detect the viability of HUVECs incubated with MHP6, MHP7 and MHP9 [38]. In brief, HUVECs were seeded in 96-well plates and cultured for 24 h. Subsequently, HUVECs were separately treated with MHP6, MHP7 and MHP9 (100, 200, 300 or 400 μM) at 37 °C. After 24 h, MTT was added into the cell culture to reach a final concentration of 2 mg/mL. After 4 h, DMSO was added into each well and the absorbance at 490 nm was determined. Cell viability was calculated according to the following formula:Cell viability (%) = (Asample/Acontrol) × 100(2)

[5] = target: T1, ACE (Homo sapiens, UniProt P12821); assay: ACEi activity (FAPGG substrate); assay type: biochemical; settings: 1.5 mg/mL; FAPGG (3 mM) substrate, ACE 1.25 mU, 37 °C, 0.5 h incubation, HPLC at 228 nm; mean ± SD, n = 3
Experimental: The ACEi activity of PSC-MH, fractions and peptides (MHP1-MHP12) was determined by using FAPGG as a substrate. Briefly, the initial volume was made up of a 50 µL volume of FAPGG (3 mM), ACE (1.25 mU) and the sample solution, respectively. These solutions were first preheated at 37 °C for 0.5 h […], and mixed and incubated for an additional 0.5 h. After that, 150 µL of glacial acetic acid was added to the solution to inactivate ACE. After that, the content of hippuric acid (HA) in the reaction mixture produced from the substrate reactions catalyzed by ACE was determined using HPLC at 228 nm. In short, using an isocratic system (pH 3.0) made up of 12.5% (v/v) acetonitrile in deionized water, the amount of free HA was evaluated using an HPLC system (Agilent 1200, Agilent Ltd., Santa Clara, CA, USA) on a Zorbax SB C-18 column (4.6 × 250 mm, 5 µm). The sample (10 µL) was eluted at a flow rate of 1.0 mL/min, and the absorbance at 228 nm was monitored to obtain the measurement. A total of 50 µL of PBS buffer, used as the sample substitute, was added into the control reaction mixture. ACEi activity was calculated as follows: ACEi activity (%) = [(HA control − HA sample)/HA control] × 100%(1)

[6] = target: T1, ACE; settings: cited from earlier work
Experimental: To illustrate the ACEi mechanism of MHP6, MHP7 and MHP9, a molecular docking assay was conducted (Figure 7), and the affinities of MHP6, MHP7 and MHP9 with ACE were −7.3, −10.9 and −9.4 kcal/mol, respectively, which were similar to those of ACEi peptides from miiuy croakers (IKSW: −9.3 kcal/mol), M. edulis (LSFR: −8.5 kcal/mol), rice bran (YSK: −7.9 kcal/mol), tuna milts (YEGDP: −8.8 kcal/mol) and soybean (LVLL: −8.6 kca ...

[7] = system: Nrf2 and heme oxygenase-1 (HO-1) proteins in HUVECs; settings: oxidative damage, ref [73]; cited from earlier work
Description: as §1

[8] = peptide 300 μM, 24 h, without NE, control 54.87 ± 2.57 pg/mL, mean ± SD, n = 3

T1 sequence (P12821 30-1306, species assumed): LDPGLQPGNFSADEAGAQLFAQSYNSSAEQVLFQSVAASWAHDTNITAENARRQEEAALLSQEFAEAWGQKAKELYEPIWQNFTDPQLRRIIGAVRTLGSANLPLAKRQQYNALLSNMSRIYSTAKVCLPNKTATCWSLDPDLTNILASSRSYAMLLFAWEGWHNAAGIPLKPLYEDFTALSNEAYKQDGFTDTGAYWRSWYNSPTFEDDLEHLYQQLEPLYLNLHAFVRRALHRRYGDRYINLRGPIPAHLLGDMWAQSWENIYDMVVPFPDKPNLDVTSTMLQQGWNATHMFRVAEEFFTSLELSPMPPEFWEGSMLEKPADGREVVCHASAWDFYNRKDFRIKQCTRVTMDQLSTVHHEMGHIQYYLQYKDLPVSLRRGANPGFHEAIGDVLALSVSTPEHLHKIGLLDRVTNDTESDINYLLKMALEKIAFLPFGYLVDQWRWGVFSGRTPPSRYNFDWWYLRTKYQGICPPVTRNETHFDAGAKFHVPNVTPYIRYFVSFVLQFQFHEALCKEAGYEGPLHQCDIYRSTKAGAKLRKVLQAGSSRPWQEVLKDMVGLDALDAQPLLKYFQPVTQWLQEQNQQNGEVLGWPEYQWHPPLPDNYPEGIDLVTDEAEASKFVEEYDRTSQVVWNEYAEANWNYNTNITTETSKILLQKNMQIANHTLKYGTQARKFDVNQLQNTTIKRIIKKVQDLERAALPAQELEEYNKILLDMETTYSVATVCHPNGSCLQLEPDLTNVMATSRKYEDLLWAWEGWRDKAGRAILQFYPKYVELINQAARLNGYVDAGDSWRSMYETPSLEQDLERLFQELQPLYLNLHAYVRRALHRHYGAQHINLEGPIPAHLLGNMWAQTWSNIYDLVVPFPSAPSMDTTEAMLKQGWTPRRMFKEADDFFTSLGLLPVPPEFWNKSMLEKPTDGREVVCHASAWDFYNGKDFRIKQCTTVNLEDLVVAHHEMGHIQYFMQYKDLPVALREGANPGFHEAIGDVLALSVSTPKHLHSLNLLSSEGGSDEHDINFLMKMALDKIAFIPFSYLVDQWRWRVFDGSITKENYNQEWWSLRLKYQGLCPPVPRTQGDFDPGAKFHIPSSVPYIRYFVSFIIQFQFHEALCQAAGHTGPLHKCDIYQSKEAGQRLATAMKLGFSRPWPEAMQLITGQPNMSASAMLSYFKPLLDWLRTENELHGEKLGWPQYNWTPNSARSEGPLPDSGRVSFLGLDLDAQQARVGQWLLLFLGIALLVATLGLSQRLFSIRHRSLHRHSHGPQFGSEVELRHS

WSPGF [from tuna roes]
ET-1 secretion and NO generation in HUVECs [1]: significantly bring down ET-1 secretion and improve the NO generation in HUVECs

NC[C@H](O)c1ccc(O)c(O)c1 [NE, norepinephrine, reference compound]
NO level in HUVECs ([2]; NE treatment, p < 0.001): 21.34 ± 1.24 µM
ET-1 content in HUVECs ([3]; NE 0.5 μM, control 54.87 ± 2.57 pg/mL, p < 0.001, mean ± SD, n = 3): 69.58 ± 3.11 pg/mL

H-FDGPY-OH [MHP7, Phe-Asp-Gly-Pro-Tyr]
NO content in NE-treated HUVECs ([2]; p < 0.001): 26.31 ± 1.22 µM
NO production level in HUVECs [2]: 48.91 ± 2.35 µM
NO content in HUVECs, result in words [2]: significantly increased
Cell viability of HUVECs [4]: 90.39 ± 3.19%
Viability of HUVECs, result in words [4]: might lead to some adverse harm to the function of HUVECs
ACEi activity [5]: 84.99 ± 2.34%
ET-1 content in NE-treated HUVECs ([3]; p < 0.001, mean ± SD, n = 3): 61.23 ± 1.89 pg/mL
ET-1 content in HUVECs [3, 8]: 43.87 ± 1.73 pg/mL
ET-1 content in HUVECs, result in words ([3]; p < 0.001): significantly reduce the ET-1 content in HUVECs

H-SPGPW-OH [MHP9, Ser-Pro-Gly-Pro-Trp]
NO content in NE-treated HUVECs ([2]; p < 0.001): 29.87 ± 1.34 µM
NO production level in HUVECs [2]: 49.83 ± 0.96 µM
NO content in HUVECs, result in words [2]: significantly increased
Cell viability of HUVECs [4]: 91.76 ± 3.22%
Viability of HUVECs, result in words [4]: might lead to some adverse harm to the function of HUVECs
ACEi activity [5]: 85.39 ± 3.46%
ET-1 content in NE-treated HUVECs ([3]; p < 0.001, mean ± SD, n = 3): 58.44 ± 2.34 pg/mL
ET-1 content in HUVECs [3, 8]: 42.18 ± 2.09 pg/mL
ET-1 content in HUVECs, result in words ([3]; p < 0.001): significantly reduce the ET-1 content in HUVECs

LSFR
Affinity with ACE ([6]; peptide from M. edulis, ref [30]): -8.5 kcal/mol

H-SEGPK-OH [MHP6, Ser-Glu-Gly-Pro-Lys]
NO content in NE-treated HUVECs ([2]; p < 0.001): 31.24 ± 1.29 µM
NO production level in HUVECs [2]: 51.68 ± 2.38 µM
NO content in HUVECs, result in words [2]: significantly increased
Cell viability of HUVECs [4]: 91.27 ± 2.64%
Viability of HUVECs, result in words [4]: might lead to some adverse harm to the function of HUVECs
ACEi activity [5]: 86.34 ± 3.25%
ET-1 content in NE-treated HUVECs ([3]; p < 0.001, mean ± SD, n = 3): 57.62 ± 1.95 pg/mL
ET-1 content in HUVECs [3, 8]: 40.35 ± 1.96 pg/mL
ET-1 content in HUVECs, result in words ([3]; p < 0.001): significantly reduce the ET-1 content in HUVECs

IVTNWDDMEK
NO and ET-1 production in HUVECs [1]: regulate NO and ET-1 production in a concentration-dependent manner
Expression levels of Nrf2 and HO-1 proteins [7]: positively regulate the expression levels of Nrf2 and heme oxygenase-1 (HO-1) proteins

YEGDP
Affinity with ACE ([6]; peptide from tuna milts, ref [32]): -8.8 kcal/mol

C[C@H](CS)C(=O)N1CCC[C@H]1C(=O)O [Cap, captopril, reference compound]
NO level in HUVECs ([2]; Cap treatment): 56.18 ± 2.58 µM
ET-1 level in HUVECs ([3]; Cap 1.0 μM, control 54.87 ± 2.57 pg/mL, mean ± SD, n = 3): 32.25 ± 1.26 pg/mL

LVLL [ACEi peptide from soybean]
Affinity with ACE ([6]; peptide from soybean, ref [72]): -8.6 kcal/mol

VGPAGPRG
NO and ET-1 production in HUVECs [1]: regulate NO and ET-1 production in a concentration-dependent manner
Expression levels of Nrf2 and HO-1 proteins [7]: positively regulate the expression levels of Nrf2 and heme oxygenase-1 (HO-1) proteins

IKSW [ACEi peptide from miiuy croakers]
Affinity with ACE ([6]; peptide from miiuy croakers, ref [31]): -9.3 kcal/mol

WGESF [from tuna roes]
ET-1 secretion and NO generation in HUVECs [1]: significantly bring down ET-1 secretion and improve the NO generation in HUVECs
